Reference: US20250018019A1, “TREATMENT OF INTERFERON DRIVEN INFLAMMATION” (The Provost, Fellows, Foundation Scholars and the other …, priority 2023, published 2025)
Structures can show the parent of a compound that is named as a salt.

Tested on: BMDMs
Test: Proteomic analysis of BMDMs
Format: cell-based, mouse
Details: BMDMs pre-treated vs DMSO, LPS 4 h
Experimental: BMDMs (from 5 independent mice) were plated onto 10-cm dishes and treated as indicated. At the experimental endpoint, cells were washed with PBS on ice and centrifuged at 1500 rpm for 5 mins at 4° C. and frozen at -80° C. Cell pellets were lysed, reduced and alkylated in 50 μl of 6M Gu-HCl, 200 mM Tris-HCl PH 8.5, 10 mM TCEP, 15 mM Chloroacetamide by probe sonication and heating to 95° C. for 5 min. Protein concentration was measured by a Bradford assay and initially digested with LysC (Wako) with an enzyme to substrate ratio of 1/200 for 4 h at 37° C. Subsequently, the samples were diluted tenfold with water and digested with porcine trypsin (Promega) at 37° C. overnight. Samples were acidified to 1% TFA, cleared by centrifugation (16,000 g at RT) and approximately 20 μg of the sample was desalted using a Stage-tip. Eluted peptides were lyophilized, resuspended in 0.1% TFA/water and the peptide concentration was measured by A280 on a nanodrop instrument (Thermo). The sample was diluted to 2 μg/5 μl for subsequent analysis. The tryptic peptides were analysed on a Fusion Lumos mass spectrometer connected to an Ultimate Ultra3000 chromatography system (both Thermo Scientific) incorporating an autosampler. 2 μg of de-salted peptides were loaded onto a 50 cm emitter packed with 1.9 μm ReproSil-Pur 200 C18-AQ (Dr Maisch, Germany) using a RSLC-nano uHPLC systems connected to a Fusion Lumos mass spectrometer (both Thermo, UK). Peptides were separated by a 140 min linear gradient from 5% to 30% acetonitrile, 0.5% acetic acid. […] Raw files were analysed and quantified by searching against the Uniprot Mus Musculus database using DIA-NN 1.8 (https://github.com/[…]). […] Data were expressed as mean±standard error of the mean (SEM) unless stated otherwise. […] The proteomics cut-offs for analysis were a log2FC of 0.5 and a false discovery rate (FDR)<0.05, determined using t statistics. […] Overrepresentation analysis (ORA) of significant changes were assessed using Enrichr^4 and the Bioconductor package clusterProfiler 4.0 in R (version 3.6.1). […]

## COC(=O)/C=C/C(=O)OC [DMF, dimethyl fumarate]
  GDF15 protein (proteomics): one of the most significantly increased proteins

## CCOC(=O)[C@@]12CCCC=C1N(Cc1ccc(-c3ccccc3)cc1)C(=O)[C@H]2CC(=O)NC [FHIN1, Fumarate hydratase-IN-1]
  GDF15 protein (proteomics): one of the most significantly increased proteins
  SLC25A39 protein (proteomics): increased
